Results published in PMC6073232 (International Journal of Molecular Sciences, 2018).

Legend:
TRESK (K2P18.1) [1] = target: T1, TRESK (K2P18.1) (Mus musculus, UniProt Q6VV64); test: whole-cell patch clamp (abstract prints IC50 […]); format: cell-based
T1 construct: gene Kcnk18; mouse TRESK (NM_207261) in HEK-293 cells
T1 sequence (Q6VV64 1-394): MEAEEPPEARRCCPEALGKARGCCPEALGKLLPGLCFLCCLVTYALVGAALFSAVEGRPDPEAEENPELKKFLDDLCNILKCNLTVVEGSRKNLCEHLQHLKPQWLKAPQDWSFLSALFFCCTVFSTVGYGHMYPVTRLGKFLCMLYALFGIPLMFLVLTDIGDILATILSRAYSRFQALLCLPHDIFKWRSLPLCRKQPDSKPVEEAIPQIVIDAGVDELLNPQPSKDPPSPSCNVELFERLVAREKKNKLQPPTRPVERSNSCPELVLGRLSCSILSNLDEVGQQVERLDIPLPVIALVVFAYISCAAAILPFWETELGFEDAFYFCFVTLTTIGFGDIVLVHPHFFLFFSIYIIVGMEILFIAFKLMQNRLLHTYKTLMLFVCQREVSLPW

TRESK (K2P18.1) [2] = target: T1, TRESK (K2P18.1); test: whole-cell patch clamp, % inhibition at […]; format: cell-based

inhibition at 20 µM (TRESK (K2P18.1) [2]) | SMILES | IC50 (TRESK (K2P18.1) [1])
 | COC(=O)C1=C(C)NC(C)=C(C(=O)OC)C1c1ccccc1[N+](=O)[O-] [nifedipine] | 63.8 µM
45 ± 6% | COc1ccc(CCN(C)CCCC(C#N)(c2cc(OC)c(OC)c(OC)c2)C(C)C)cc1OC (centres unmarked) [D600] | 
